5 molecules from ChEMBL document CHEMBL1148411 (J Med Chem, 2004) can be followed below.

The target in the assay is T1, Angiotensin II receptor (AT-1) type-1 (Rattus norvegicus, UniProt P29089+P25095).
T1 sequence (P29089 whole entry): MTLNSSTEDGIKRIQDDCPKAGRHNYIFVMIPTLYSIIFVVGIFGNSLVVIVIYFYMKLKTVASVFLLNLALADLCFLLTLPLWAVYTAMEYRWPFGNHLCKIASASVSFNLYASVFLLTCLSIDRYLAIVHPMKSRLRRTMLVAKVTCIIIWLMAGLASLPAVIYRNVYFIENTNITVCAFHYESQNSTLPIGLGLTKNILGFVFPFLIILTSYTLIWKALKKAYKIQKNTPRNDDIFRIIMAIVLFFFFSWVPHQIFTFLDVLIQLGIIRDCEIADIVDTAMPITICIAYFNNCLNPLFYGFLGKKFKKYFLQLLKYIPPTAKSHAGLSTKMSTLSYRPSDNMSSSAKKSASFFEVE
T1 sequence (P25095 whole entry): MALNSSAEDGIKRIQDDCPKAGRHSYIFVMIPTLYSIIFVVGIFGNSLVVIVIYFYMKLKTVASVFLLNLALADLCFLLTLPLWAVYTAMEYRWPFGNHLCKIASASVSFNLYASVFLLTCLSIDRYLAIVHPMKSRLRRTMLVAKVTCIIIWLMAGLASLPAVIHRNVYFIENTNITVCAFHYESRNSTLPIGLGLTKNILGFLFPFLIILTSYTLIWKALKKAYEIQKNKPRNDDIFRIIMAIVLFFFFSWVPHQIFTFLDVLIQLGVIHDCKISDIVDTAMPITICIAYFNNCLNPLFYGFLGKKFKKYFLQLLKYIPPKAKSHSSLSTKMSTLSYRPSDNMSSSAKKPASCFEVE
As to the kind of experiment: Binding affinity for angiotensin II receptor type 1 using [125I]- Ang II in rat liver membranes. It is filed as cell membranes, Membrane.

Numbered stars: 1 amine (or outer) side, 2 acyl side, 3 side chain; on linkers, the order of the positions; unused ones are H or OH. Bridge positions count the residues as written; N and C are the ends. Square brackets hold non-standard residues; d marks the D form. Peptide text beside a SMILES is read from it. Phe(4-NH2) = Nc1ccc(C[C@H](N)C(=O)O)cc1; CH2 = C([*:1])[*:2]

On to `CC[C@@H](C)[C@@H](C(=O)N[C@@H](Cc1c[nH]cn1)C(=O)N1CCC[C@H]1C(=O)N[C@@H](Cc1ccccc1)C(=O)O)N1Cc2cc(NC(=O)[C@H](CCCN=C(N)N)NC(=O)[C@@H](N)CC(=O)O)ccc2[C@@H](Cc2ccc(O)cc2)C1=O` (single isomer, unassigned; diastereomer a), for which the Ki was over 10 µM. Take `CC[C@H](C)[C@H](NC(=O)[C@H](Cc1ccc(O)cc1)NC(=O)[C@@H](NC(=O)[C@H](CCCN=C(N)N)NC(=O)[C@@H](N)CC(=O)O)C(C)C)C(=O)N[C@@H](Cc1ccc(N)cc1)C(=O)N1CCC[C@H]1C(=O)N[C@@H](Cc1ccccc1)C(=O)O` (H-DRVYI[Phe(4-NH2)]PF-OH): the Ki is over 10 µM. Under `CC(C)[C@H](NC(=O)[C@H](CCCN=C(N)N)NC(=O)[C@@H](N)CC(=O)O)C(=O)N[C@@H](Cc1ccc(O)cc1)C(=O)Nc1ccc2c(c1)CN(CC(=O)N[C@@H](Cc1ccccc1)C(=O)O)C(=O)[C@H](Cc1c[nH]cn1)N2` stands over 10 µM; under `N=C(N)NCCC[C@H](NC(=O)[C@@H](N)CC(=O)O)C(=O)N[C@H]1CSCSC[C@@H](C(=O)N[C@@H](Cc2cnc[nH]2)C(=O)N2CCC[C@H]2C(=O)N[C@@H](Cc2ccccc2)C(=O)O)NC(=O)[C@H](Cc2ccc(O)cc2)NC1=O` (H-DRCYCHPF-OH; linker 3-5 via CH2), 0.044 µM. The same measure for `CC(C)[C@H](NC(=O)[C@H](C)NC(=O)[C@@H](N)CC(=O)O)C(=O)Nc1ccc2c(c1)CN(CC(=O)N[C@@H](Cc1c[nH]cn1)C(=O)N1CCC[C@H]1C(=O)N[C@@H](Cc1ccccc1)C(=O)O)C(=O)[C@H](Cc1ccc(O)cc1)N2`: over 10 µM.
